The term IC50 denotes the concentration needed to halve the response being measured. Lower therefore signals inhibition by little substance.

Where no end group is shown, it is not given here.

The target of data set [1] is T1, HCoV-NL63 E protein (Human coronavirus NL63, UniProt Q6Q1S0). The class given is cell-based. The settings on record: construct co-transfection, HEK 293T.
The target in data set [2] is T1, HCoV-NL63 E protein. The class given is cell-based. To be noted: construct co-transfection, NIH 3T3. How it is done:
(§1) For the imaging experiments in FIGS. 1a-1e and 7a-7f, NIH 3T3 cells were plated at a cell density of 2.5×10^5 cells/ml. The following day, the cells were transfected using Lipofectamine 3000 reagents (Thermo-Fisher, #L3000001). 4 μg of plasmid were mixed into 125 μL of serum-free OptiMEM with 5 μL of P3000 reagent. This was then added to another 125 μL of serum-free OptiMEM containing 7.5 μL of Lipofectamine 3000. Plasmid/P3000-lipofectamine complex was incubated for 15 minutes at room temperature, and then added to the plate. The medium was replaced 20-24 h after transfection, and 1 μM of Lysosensor Green DND-189 (Thermo-Fisher, L7535) was added. The cells were incubated for 30 minutes in a 37° C., 5% CO2 incubator. The medium was replaced one final time prior to imaging. The live cell imaging was conducted on a customized/automated fluorescence microscope (Ti—U, Nikon) using an environmental chamber (TOKAI) and the culture medium to maintain normal cell culture conditions (37° C., 5% CO2, 20% O2). […] Fluorescence quantification and analysis was performed with ImageJ software and Prism 7/8/9 (GraphPad). Representative images were also gathered on a Leica DMi8 confocal microscope. The following peptides (>95% purity) were synthesized by Thermo-Fisher/Pierce: […]

Data set [3] has as its target MERS-CoV E protein (Middle East respiratory syndrome-related coronavirus, UniProt K9N5R3). The class given is cell-based.
In data set [4] the target is T2, SARS-CoV-2 E (2E) (Severe acute respiratory syndrome coronavirus 2, UniProt P0DTC4).
The subject of data set [5] is SARS-CoV-2 WA1 virus.
The target in data set [6] is 2E protein (Severe acute respiratory syndrome coronavirus 2, UniProt P0DTC4).
Data set [7] has as its target T2, SARS-CoV-2 E (2E). The class given is cell-based.
Data set [8] has as its target HCoV-HKU1 E protein (Human coronavirus HKU1, UniProt Q5MQC8). The class given is cell-based. To be noted: construct co-transfection, NIH 3T3. How it is done: as §1
For data set [9] the following is noted: mouse.
The conditions of data set [10]: mouse, in vivo.
In data set [11] the test system is Vero-E6 cells.
Data set [12] concerns NIH 3T3 cells.

T1 sequence (Q6Q1S0 whole entry, looked up): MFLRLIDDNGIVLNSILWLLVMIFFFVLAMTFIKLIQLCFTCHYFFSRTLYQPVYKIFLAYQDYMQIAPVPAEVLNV
T2 sequence (P0DTC4 whole entry, looked up): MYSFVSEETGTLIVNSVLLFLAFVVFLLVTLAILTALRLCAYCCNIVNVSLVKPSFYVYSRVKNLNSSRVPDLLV
HCoV-HKU1 E protein, sequence (Q5MQC8 whole entry, looked up): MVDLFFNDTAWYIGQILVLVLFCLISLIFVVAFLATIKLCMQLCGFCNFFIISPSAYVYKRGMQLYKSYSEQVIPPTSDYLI
MERS-CoV E protein, sequence (K9N5R3 whole entry, looked up): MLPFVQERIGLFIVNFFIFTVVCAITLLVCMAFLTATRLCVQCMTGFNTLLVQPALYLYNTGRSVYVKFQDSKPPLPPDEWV
2E protein, sequence (P0DTC4 whole entry, looked up): as the sequence (P0DTC4 whole entry, looked up) above

On to “MFLRLIEEDGIVLNSILW [HCoV-NL63 MY18 2DE & N9D]”, for which the “Relative NFAT-FLuc/TK-RLuc activity (effect of NL63-E)” value in data set [1] is listed as “effective to inhibit the cellular toxicity”. For the same substance, the “DND-189 fluorescence (proton homeostasis), HCoV-NL63 E” value in data set [2] is “could significantly rescue the phenotypes in proton homeostasis”.

Turning to MLPFVQERIGLFIVNFFI [MERS-CoV MY18 WT], the “Relative NFAT-FLuc/TK-RLuc activity (effect of MERS-E)” value in data set [3] was “could significantly reduce the effect of each E on NFAT/AP-1 reporter”.

Turning to MFLRLIDDNGIVLNSILW [HCoV-NL63 MY18 WT], the “Relative NFAT-FLuc/TK-RLuc activity (effect of NL63-E)” value in data set [1] is “could significantly reduce the effect of each E on NFAT/AP-1 reporter”.

MYSFVSEETGTLIVNSVL [MY18]: the “Relative NFAT-FLuc/TK-RLuc activity (effect of 2E on NFAT/AP-1 pathway)” value in data set [4] is on record as “significantly suppresses the effect of 2E on the NFAT/AP-1 pathway”. For the same substance, the “Inhibition of viral toxicity (cytopathic effect)” value in data set [5] was “moderate inhibitory effect on the virus”. Besides, the “Co-localization with 2E proteins” value in data set [6] is on record as “co-localized with 2E proteins”. Also, the “Effect of synthetic peptide on 2E in DND-189-based pH imaging” value in [7] is reported as “does not have any effect on 2E”.

For “GRKKRRQRRRPPQMYSFVSEETGTLIVNSVL [TAT-MY18]”, in [7], the “Effect of synthetic peptide on 2E in DND-189-based pH imaging” value was “effective cell-penetrating peptide” and the “Relative fluorescent intensity of DND-189 dye compared to mock” value (from here on “Relative fluorescent intensity”) is “not different from mock”.

Turning to VDLFFNETAWYIGQILV [HCoV-HKU1 MY18 D8E], the “DND-189 fluorescence (proton homeostasis), HCoV-HKU1 E” value in data set [8] is “could significantly rescue the phenotypes in proton homeostasis”.

As for “GRKKRRQRRRPPQMYSFVSDDTGTLIVNSVL [iPep-SARS2-E]”, in [5] (WA1 virus), the IC50 is about 200 nM. Moreover, in [9], the Toxicity in vivo result is reported as “no obvious toxicity”. For the same substance, in data set [9] (in vivo), the Body weight result was “did not find that there are differences”, the “C5a (inflammation marker)” value was “did not find that there are differences” and the “Cxc112 (inflammation marker)” value is reported as “did not find that there are differences”.

Regarding “RQIKIWFQNRRMKWKKMYSFVSEETGTLIVNSVL [Pen-MY18]”, in data set [7], the “Relative fluorescent intensity” value was “significantly lower than mock”.

Consider RRRRRRMYSFVSEETGTLIVNSVL [6Arg-MY18], for which, in [7], the “Relative fluorescent intensity” value was “significantly lower than mock”.

In the case of “GRKKRRQRRRPPQ-MYSFVSDDTGTLIVNSVL-L[C]AlexaFluo594 [TAT-MY18-2ED-Alexa Fluor 594]”, the “Detection of fluorescent peptide in nasal tissues” value in [10] is “can permeate and is detectable in mouse nasal tissues”. The “Detection of fluorescent peptide in lung tissues” value in data set [10] (iv) was “can permeate and is detectable in mouse lung tissues”. In addition, the Penetration into cells result in data set [11] is “can penetrate into these cells”. Also, the “Cell-penetrating "on" kinetics” value in data set [12] is “faster cell-penetrating than N-terminal version”.

Consider MYSFVSDDTGTLIVNSVL [MY18-2ED], for which, in data set [4], the “Relative NFAT-FLuc/TK-RLuc activity (effect of 2E on NFAT/AP-1 pathway)” value is given as “significantly improves the inhibitory effect”.

Values taken from patent US20250026796A1 (priority 2022, published 2025).
